Data set [1] in a line: Acid dissociation constant (pKa) by photometric titration in aqueous media. The data set is classed as physicochemical. Here is the method: The Acid Dissociation Constant of the EE-β-CD complex in aqueous media was determined.
In aqueous solution, the ethinyl estradiol-β-cyclodextrin complex dissociates into its components according to the law of mass action. […] The pKa was measured by a photometric titration method following the guidance given in the Environmental Assessment Technical Handbook.

Data set [2] is classed as physicochemical. Here is the method:
The molar content of each degradation products is expressed relatively to the initial molar content of ethinyl estradiol that was added to each formulation. Four formulations as well as the pure ethinyl estradiol and the ethinyl estradiol β-cyclodextrin complex were investigated.

For the compound `C#C[C@]1(O)CC[C@H]2[C@@H]3CCc4cc(O)ccc4[C@H]3CC[C@@]21C` [EE, ethinyl estradiol], the “acid dissociation constant pKa” value in data set [1] is “approx. 10.25”. Also, the pKa – broadly, the negative logarithm of the acid dissociation constant – in data set [1] (acid dissociation constant pKa) is 10.25 ± 0.04.
“ethinyl estradiol-β-Cyclodextrin complex [EE-β-CD]”: in data set [2], the “total known degradation products (% of initial content of EE)” value is on record as 0.385 % of initial content of EE.

For the origin of these results see US7163931B2, “Compositions of estrogen-cyclodextrin complexes” (Schering Aktiengesellchaft, priority 2000, dated 2007).
